Measured values published in US8119689B2, “Adjuvants on the basis of bisacyloxypropylcystene conjugates and derivatives and their uses in pharmaceutical compositions” (Helmholtz-Zentrum Fuer Infektionsforschung GmbH, priority 2005, dated 2012).

Test system: primary bone marrow-derived dendritic cells
Test: In vitro stimulation of primary bone marrow-derived murine dendritic cells, surface markers by flow cytometry
Type: cell-based, BALB/c mice
Conditions: CD11c+-gated DC, 50 ng/ml, 16 or 40 h pre-treatment
Experimental: FIG. 1: FIGS. 1A-1C show the results for In vitro studies using primary dendritic cells. Primary bone marrow-derived dendritic cell cultures were obtained from BALB/c mice by in vitro maturation of precursors using recombinant GM-CSF (5×10^4 U/ml). Mature dendritic cells were stimulated with 10 ng/ml of E. coli lypopolysaccharide (LPS) or 50 and 100 ng/ml of BPPcysGlyc4armPEG and BPPcysAda, respectively. Then, cells were double-labeled with antibodies specific for CD11c (dendritic cell marker) in combination with anti-CD40, anti-CD54, anti-CD80, anti-CD86, anti-MHC class 1, or anti-MHC class 11 antibodies. The expression of CD40, CD80, CD54, CD86, anti-MHC class 1, and MHC class 11 in CD11c-gated cells were analyzed by flow cytometry.
Experimental protocol: primary bone marrow-derived dendritic cell cultures were obtained from BALB/c mice following in vitro maturation of precursors in the presence of recombinant GM-CSF (5×10^4 U/ml), according to established protocols. Mature dendritic cells were stimulated with 10 ng/ml of E. coli lypopolysaccharide (LPS) or 5 ng/ml of BPPcysGlyc4armPEG, after 12, 24 and/or 48 h stimulation cells were analyzed by flow cytometry to assess the expression of surface markers which are relevant for their antigen presentation capacity.
In order to identify compounds which may have potential as adjuvants for in vivo applications in the vaccinology field, a first in vitro screening based on the used of primary cultures of bone marrow-derived dendritic cells was established. Dendritic cells were selected since they represent the most efficient antigen presenting cells and they play a key role by primary immune responses. In fact, they are the only cell type able to activate resting T cells initiating primary immune responses in vivo. Thus, dendritic cell cultures were treated with the tested moieties or LPS, which was used as a positive control. At different time intervals, samples were taken, stained with fluorescent-labeled antibodies specific for cellular markers critical for the antigen presenting capacities of dendritic cells, and analyzed by flow cytometry.
To test the stimulatory capacity of BPPCysAda on maturation and activation of bone marrow-derived DC, immature DC's were stimulated in vitro with BPPCysAda. Surface markers on CD11c+-gated DC were investigated by FACS analysis after 16 or 40 h pre-treatment.

## CCCCCCCCCCCCCCCC(=O)OCC(CSC[C@H](N)C(=O)N[C@H]1[C@@H](O)[C@H](n2cnc3c(N)ncnc32)O[C@@H]1CO)OC(=O)CCCCCCCCCCCCCCC (single isomer, unassigned) [BPPcysAda, S-[2,3-bis(palmitoyloxy)-(2S or 2R)-propyl]-L-cysteinylcarboxy-3′Amino-3′-deoxyadenosine]
  expression of MHC class I and II molecules: increased expression
  expression of the adhesion molecule ICAM-1 (CD54): enhanced expression
  expression of the co-stimulatory molecule CD86: up-regulated
